Experiments:
EP1 = molecular target: T1, EP1 (Homo sapiens, UniProt P34995); test: agonist activity on human EP1 receptor (intracellular calcium concentration, EP1-CHO cells); assay type: cell-based
T1 construct: expressed in transfected cells; host or cells: CHO (EP1-CHO)
T1 sequence (P34995 1-402): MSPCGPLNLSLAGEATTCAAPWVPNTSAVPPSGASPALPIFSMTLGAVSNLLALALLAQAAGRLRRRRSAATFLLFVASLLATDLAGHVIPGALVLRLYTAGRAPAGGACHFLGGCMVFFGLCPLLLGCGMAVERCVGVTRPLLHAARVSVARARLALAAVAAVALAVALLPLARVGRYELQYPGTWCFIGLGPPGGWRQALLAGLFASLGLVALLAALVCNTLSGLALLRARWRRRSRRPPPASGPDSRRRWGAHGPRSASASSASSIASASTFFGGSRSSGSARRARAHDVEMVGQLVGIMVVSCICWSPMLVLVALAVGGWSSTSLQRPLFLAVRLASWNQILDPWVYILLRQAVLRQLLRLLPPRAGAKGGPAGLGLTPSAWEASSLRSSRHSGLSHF
Experimental: Using CHO cells (EP1-CHO, EP2-CHO, EP3-Chem1, EP4-CHO and IP-CHO) on which various human prostanoid receptors were forcibly expressed, the agonist activity of the test compound on the various prostanoid receptors was examined using the intracellular calcium concentration for EP1 and EP3, and the intracellular cyclic AMP (hereinafter, abbreviated as cAMP) production amount for EP2, EP4 and IP as indices.
The test compound and control substances (PGE2 and iloprost) were dissolved in dimethyl sulfoxide (DMSO) to prepare a 10 mmol/L solution. The prepared 10 mmol/L solution was thawed at the time of use, serially diluted using DMSO, and diluted with a buffer solution 1 for measurement (Hank's balanced salt solution (Thermofischer scientific) containing 1 w/v% human serum albumin (Sigma), 2 µmol/L indomethacin (Sigma), 2.5 mmol/L probenecid, and 10 mmol/L HEPES-NaOH (pH7.4)) or a buffer solution 2 for measurement (D-PBS (Nacalai Tesque) containing 0.1 w/v% human serum albumin, 2 µmol/L diclofenac (Sigma), and 1 mmol/L 3-isobutyl-1-methylxanthine (Sigma)) to perform experiments.
The intracellular calcium concentration was measured using Calcium 6 Assay Kit (Molecular Devices). On the day before the measurement, EP1-CHO and EP3-Chem 1 were obtained by thawing the frozen cells, suspended using Ham's F-12 medium (Thermofischer scientific) containing inactivated (56°C, 30 min) 9.8 vol% FBS (Thermofischer scientific) and penicillin-streptomycin (Nacalai Tesque), seeded into a 96 well UV plate to 1.0×10^5 cells per well, and static cultured at 37°C in the presence of 5%CO2. On the day of the measurement, the medium was removed, followed by addition of 120 µL of the Calcium indication solution dissolved in the buffer solution 1 for measurement and incubation at room temperature under light-shielding for about 1 hour. After 1 hour incubation, the 96 well UV plates were set in a fluorescence spectrophotometer (FDSS-7000, Hamamatsu Photonics) to measure the intracellular calcium concentration. Thirty microliters of the buffer solution 1 for measurement containing various concentrations of agonists were added, and the mixture was reacted. The intracellular calcium concentration was measured by irradiating the cells with 480 nm excitation light and measuring the fluorescence intensity at 540 nm.

diabetes model rat = test: inhibitory effect on the amount of albumin excreted in urine in diabetes model rat; assay type: in vivo, SDT Fatty rats; details: urine collected for 24 hours, urine albumin/urine creatinine ratio
Experimental: Male SDT Fatty rats aged 6 weeks (CLEA Japan) were purchased and preliminarily bred for 1 week or more. Experiments were performed at 8 to 16 weeks of age. The animals were fed ad libitum with solid feed CRF-1 (Oriental Yeast) and watered ad libitum.
Animals were housed in metabolic cages 2 days before test substance administration, and urine was collected for 24 hours. On the day before administration of the test substance, urine albumin and urine creatinine were measured, and grouping was performed by a stratification randomization method based on the urine albumin/urine creatinine ratio (ACR) and the average value of body weights for each group.
The compounds (test substances) of Examples 9-5, 10, 11, 12, 25-7 and 32, and water for injection (Otsuka Pharmaceutical) as a vehicle were orally administered once at 5 mL/kg. The administration dose is described in Table 3.
For evaluation of the amount of albumin excreted in urine of each animal, a urine albumin/urine creatinine ratio (ACR) was measured. After administration of the test substance, the animals were housed in metabolic cages, and urine was collected for 24 hours. Each concentration of urine albumin and urine creatinine was measured using an automatic analyzer 7180 (Hitachi High-Tech), and ACR was calculated by dividing the urine albumin concentration by the urine creatinine concentration.

[1] = test system: Alport syndrome model mice; test: in vivo drug efficacy in Alport syndrome model mice; design: species or system COL4A5 homozygote knockout mice; details: Control-4 group: irbesartan (50 mg/kg) orally once a day for 17 weeks; 16 weeks after the start of administration
Experimental: The in vivo drug efficacy of the present compound on Alport syndrome was evaluated using COL4A5 (causative gene of Alport syndrome) knockout mice.
Male wild-type mice and female COL4A5 hetero knockout mice were naturally crossed to obtain offspring. Genotypes of the offspring were confirmed and male COL4A5 homozygote knockout mice were obtained.
The obtained animals were fed ad libitum with CE-2 (CLEA Japan), and watered ad libitum.
The mice were divided into groups using a statistical analysis system EXSUS10.0 so that the body weight and the urine albumin/urine creatinine value at the time of 6 weeks of age were almost uniform in each group.
The test substance and water for injection (Otsuka Pharmaceutical) as a vehicle were orally administered at 10 mL/kg once a day for 17 weeks.
The Control-3 group was orally administered water for injection at 10 mL/kg once a day for 17 weeks. In the Control-4 group, water for injection and an administration solution of irbesartan which is a renin angiotensin system inhibitor were mixed in equal amounts at 5 mL/kg each, and orally administered once a day for 17 weeks.
The administration dose is described in Table 11.
Blood collection was performed by cutting the tail vein of the mice a little with a razor and using a hematocrit capillary. Blood was centrifuged to obtain plasma. Urine was collected for about 16 hours in a metabolic cage for mouse under conditions in which a solid feed and water can be freely taken. The obtained urine sample was centrifuged, and the supernatant was subjected to measurement. Urine albumin (U-ALB) and urine creatinine (U-CRE) concentrations were measured by an automatic analyzer Hitachi 7180 (Hitachi High-Tech), and the creatinine concentration in plasma was measured using LabAssay Creatinine (Fujifilm Wako Shibayagi).

SMILES | EC50 (EP1) [µM] | other results
O=C(O)c1ccc2c(c1F)O[C@H]1C[C@@H](Cl)[C@H](/C=C/C(O)C3(c4ccccc4F)COC3)[C@H]1CC2 (stereo partly drawn) [Example 32, (1R,2R,3aS,10aR)-2-chloro-5-fluoro-1-{(1E,3ξ)-3-[3-(2-fluorophenyl)-3-oxetanyl]-3-hydroxy-1-propen-1-yl}-2,3,3a,9,10,10a-hexahydro-1H-benzo[b]cyclopenta[f]oxepine-6-carboxylic acid] | > 10 | ACR mean (diabetes model rat; 0.03 mg/kg orally once): 3391 µg/mg; ACR mean (diabetes model rat; 0.1 mg/kg orally once): 3086.1 µg/mg
CCCC[C@H](C)C(O)/C=C/[C@H]1OC[C@@H]2Oc3c(ccc(C(=O)O)c3C)CC[C@@H]21 (stereo partly drawn) [Example 41, (1R,3aR,10aR)-1-[(1E,3ξ,4S)-3-hydroxy-4-methyl-1-octen-1-yl]-5-methyl-1,3,3a,9,10,10a-hexahydrofuro[3,4-b][1]benzoxepine-6-carboxylic acid] | > 10 | –
CCCCC1=NC2(CCCC2)C(=O)N1Cc1ccc(-c2ccccc2-c2nnn[nH]2)cc1 [Irbesartan, irbesartan, reference compound] | – | Plasma creatinine mean [1]: 0.771 mg/dL; Urine Albumin/ Urine Creatinine Ratio mean [1]: 31414.47 mg/g

Further lines, with some results ahead:

EC50 (EP1) [µM] | SMILES | other results
> 10 | Cc1c(C(=O)O)ccc2c1O[C@H]1C[C@@H](O)[C@H](/C=C/C(O)C3(c4ccc(F)cc4)CCC3)[C@H]1CC2 (stereo partly drawn) [Example 9-5, (1R,2R,3aS,10aR)-1-{(1E,3ξ)-3-[1-(4-fluorophenyl)cyclobutyl]-3-hydroxy-1-propen-1-yl}-2-hydroxy-5-methyl-2,3,3a,9,10,10a-hexahydro-1H-benzo[b]cyclopenta[f]oxepine-6-carboxylic acid] | ACR mean (diabetes model rat; 0.1 mg/kg orally once): 4691.4 µg/mg; ACR mean (diabetes model rat; 0.3 mg/kg orally once): 4466.2 µg/mg
> 10 | O=C(O)c1ccc2c(c1F)O[C@H]1C[C@@H](F)[C@H](/C=C/C(O)C3(c4ccccc4)COC3)[C@H]1CC2 (stereo partly drawn) [Example 28-2, (1R,2R,3aS,10aR)-2,5-difluoro-1-[(1E,3ξ)-3-hydroxy-3-(3-phenyl-3-oxetanyl)-1-propen-1-yl]-2,3,3a,9,10,10a-hexahydro-1H-benzo[b]cyclopenta[f]oxepine-6-carboxylic acid] | –
> 10 | O=C(O)c1ccc2c(c1F)O[C@H]1C[C@@H](Cl)[C@H](/C=C/C(O)C3(c4ccccc4)CCO3)[C@H]1CC2 (stereo partly drawn) [Example 32-6, (1R,2R,3aS,10aR)-2-chloro-5-fluoro-1-{(1E,3ξ)-3-hydroxy-3-[(2ξ)-2-phenyl-2-oxetanyl]-1-propen-1-yl}-2,3,3a,9,10,10a-hexahydro-1H-benzo[b]cyclopenta[f]oxepine-6-carboxylic acid] | –
> 10 | Cc1c(C(=O)O)ccc2c1O[C@H]1CO[C@H](/C=C/C(O)C3(Oc4ccccc4)CCC3)[C@H]1CC2 (stereo partly drawn) [Example 41-2, (1R,3aR,10aR)-1-[(1E,3ξ)-3-hydroxy-3-(1-phenoxycyclobutyl)-1-propen-1-yl]-5-methyl-1,3,3a,9,10,10a-hexahydrofuro[3,4-b][1]benzoxepine-6-carboxylic acid] | –

— patent publication EP4682141A1, “TRICYCLIC COMPOUND” (ONO Pharmaceutical Co., Ltd., priority 2023, dated 2024)
